Like-named read-outs stand apart in the source and are kept apart here.
Experiments:
[1] = target: α6β3γ2 benzodiazepine receptor GABA(A) isoform (UniProt P18507+Q16445); test: Radioligand competition binding, α6β3γ2 BzR/GABA(A) isoform; set-up: species or system human and rat
Protocol: (§1) The affinity of all ligands at the 6 major recombinant GABAA/BzR subtypes was measured by competition for [^3H]Ro15-1788 binding to HEK-T cells expressing both human and rat GABAA/Bz receptors of composition α1β2γ2 (α1), α2β2γ2 (α2), α3β2γ2 (α3), α4β2γ2 (α4), α5β2γ2 (α5) and α6β2γ2 (α6). It is well known that the β2 and β3 subunits can be interchanged with no effect on Bz ligand affinity or efficacy. […] These studies are similar to those performed in the laboratory of Bryan Roth who has already expressed the receptors employing the work of Kucken et. al. and Gray et. al.
(§2) In brief, for membrane preparations, the cells were scraped on to the ice and diluted into 5 mL of phosphate buffered saline (pH=7.40) and cells pelleted by centrifugation for 5 min. at 4° C. The pellet was resuspended in 1 mL of 50 mM Tris-acetate buffer (pH 7.4) and centrifuged at 18,000 g for 20 min. […] Each pellet were diluted to 6 mL and then 100 μL of membranes were incubated with approximately 1 nM final concentration of [^3H]Ro 15-1788 in a total volume of 250 μL together with serial dilutions of test compound for 90 min. on ice. The membranes were harvested in polyethyleneimine-pretreated Whatman GF/C filters and after drying and addition of scintillation cocktail, counted in a scintillation counter. The cpm retained on the filters was plotted against log concentration (M) and fitted to one site competition equation to obtain the Ki using Graphpad Prizm (V4.0) using the Cheng-Prusoff approximation.

[2] = target: T1, α1β3γ2 benzodiazepine receptor GABA(A) isoform (UniProt P14867+P18507); test: Radioligand competition binding, α1β3γ2 BzR/GABA(A) isoform; set-up: Ki α1; means of two determinations; Ki α1; α1; species or system human and rat
T1 sequence (P14867 1-456): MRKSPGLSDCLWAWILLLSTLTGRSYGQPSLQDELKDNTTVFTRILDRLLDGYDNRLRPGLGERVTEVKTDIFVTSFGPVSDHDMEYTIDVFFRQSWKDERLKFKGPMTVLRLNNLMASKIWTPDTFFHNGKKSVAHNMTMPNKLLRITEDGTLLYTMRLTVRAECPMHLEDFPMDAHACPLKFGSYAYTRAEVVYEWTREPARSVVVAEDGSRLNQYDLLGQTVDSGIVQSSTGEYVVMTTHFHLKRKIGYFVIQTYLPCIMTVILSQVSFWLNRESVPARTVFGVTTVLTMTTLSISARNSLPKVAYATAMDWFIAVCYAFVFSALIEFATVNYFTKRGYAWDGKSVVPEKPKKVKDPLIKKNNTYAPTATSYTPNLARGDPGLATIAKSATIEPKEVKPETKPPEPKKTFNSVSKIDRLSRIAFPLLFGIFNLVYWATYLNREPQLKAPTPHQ
T1 sequence (P18507 1-475): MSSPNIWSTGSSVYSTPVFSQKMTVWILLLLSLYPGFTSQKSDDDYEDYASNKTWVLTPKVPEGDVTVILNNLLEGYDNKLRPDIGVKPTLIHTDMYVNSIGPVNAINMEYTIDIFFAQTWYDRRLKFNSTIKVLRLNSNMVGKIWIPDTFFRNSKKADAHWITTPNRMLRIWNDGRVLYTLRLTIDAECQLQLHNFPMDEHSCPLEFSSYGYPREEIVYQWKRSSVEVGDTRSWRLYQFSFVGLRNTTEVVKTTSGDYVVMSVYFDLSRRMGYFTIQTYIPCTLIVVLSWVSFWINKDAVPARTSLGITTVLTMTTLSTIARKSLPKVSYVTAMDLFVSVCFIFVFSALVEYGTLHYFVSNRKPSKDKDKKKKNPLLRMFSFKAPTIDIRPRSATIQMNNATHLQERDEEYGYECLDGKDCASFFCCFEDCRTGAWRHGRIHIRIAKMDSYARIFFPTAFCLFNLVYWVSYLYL
Protocol: as §1, §2

[3] = target: α5β3γ2 GABAA receptor (Rattus norvegicus, UniProt P18508+P19969); test: Two-electrode voltage clamp in Xenopus oocytes, α5β3γ2; conditions: oocytes
Chain of α5β3γ2 GABAA receptor (P19969 26-464): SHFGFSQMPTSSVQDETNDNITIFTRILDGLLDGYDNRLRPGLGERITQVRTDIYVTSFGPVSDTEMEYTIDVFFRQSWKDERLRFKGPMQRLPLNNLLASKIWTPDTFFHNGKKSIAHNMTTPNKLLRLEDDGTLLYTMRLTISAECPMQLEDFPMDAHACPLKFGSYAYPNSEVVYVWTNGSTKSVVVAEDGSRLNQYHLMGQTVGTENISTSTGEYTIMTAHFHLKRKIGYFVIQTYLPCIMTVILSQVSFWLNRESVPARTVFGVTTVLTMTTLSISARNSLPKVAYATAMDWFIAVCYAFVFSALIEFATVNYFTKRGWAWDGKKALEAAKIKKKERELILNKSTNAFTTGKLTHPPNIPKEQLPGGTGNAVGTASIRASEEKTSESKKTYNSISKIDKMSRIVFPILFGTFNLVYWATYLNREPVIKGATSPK
Chain of α5β3γ2 GABAA receptor (P63079 26-473 partner): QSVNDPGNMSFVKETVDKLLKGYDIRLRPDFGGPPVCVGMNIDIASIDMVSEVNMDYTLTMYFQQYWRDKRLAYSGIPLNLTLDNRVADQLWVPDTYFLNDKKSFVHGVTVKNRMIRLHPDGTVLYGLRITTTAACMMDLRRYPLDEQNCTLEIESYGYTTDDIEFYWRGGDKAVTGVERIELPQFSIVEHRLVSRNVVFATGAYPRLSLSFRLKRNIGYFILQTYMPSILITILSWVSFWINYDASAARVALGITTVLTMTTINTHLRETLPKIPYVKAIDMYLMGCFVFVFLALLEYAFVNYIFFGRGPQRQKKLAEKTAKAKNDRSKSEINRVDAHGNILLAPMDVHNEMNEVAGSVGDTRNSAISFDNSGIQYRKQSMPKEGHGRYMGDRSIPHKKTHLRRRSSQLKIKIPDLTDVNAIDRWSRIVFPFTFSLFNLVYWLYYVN
Chain of α5β3γ2 GABAA receptor (P18508 39-466): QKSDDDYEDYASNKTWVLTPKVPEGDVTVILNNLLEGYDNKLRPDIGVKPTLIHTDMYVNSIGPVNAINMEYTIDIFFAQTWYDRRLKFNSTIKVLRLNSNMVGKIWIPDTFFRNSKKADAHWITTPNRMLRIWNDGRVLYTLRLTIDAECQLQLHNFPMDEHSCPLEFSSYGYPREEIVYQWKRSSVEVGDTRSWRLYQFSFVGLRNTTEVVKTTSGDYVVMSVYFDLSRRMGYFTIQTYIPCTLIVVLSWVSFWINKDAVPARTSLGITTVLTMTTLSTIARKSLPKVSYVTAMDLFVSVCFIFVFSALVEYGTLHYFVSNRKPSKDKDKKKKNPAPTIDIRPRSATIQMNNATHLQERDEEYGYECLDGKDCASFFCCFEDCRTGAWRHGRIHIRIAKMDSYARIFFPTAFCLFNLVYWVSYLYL

[4] = target: T2, α2β3γ2 benzodiazepine receptor GABA(A) isoform (UniProt P18507+P47869); test: Radioligand competition binding, α2β3γ2 BzR/GABA(A) isoform; set-up: species or system human and rat
T2 sequence (P18507 1-475): T1 sequence (P18507 1-475)
T2 sequence (P47869 1-451): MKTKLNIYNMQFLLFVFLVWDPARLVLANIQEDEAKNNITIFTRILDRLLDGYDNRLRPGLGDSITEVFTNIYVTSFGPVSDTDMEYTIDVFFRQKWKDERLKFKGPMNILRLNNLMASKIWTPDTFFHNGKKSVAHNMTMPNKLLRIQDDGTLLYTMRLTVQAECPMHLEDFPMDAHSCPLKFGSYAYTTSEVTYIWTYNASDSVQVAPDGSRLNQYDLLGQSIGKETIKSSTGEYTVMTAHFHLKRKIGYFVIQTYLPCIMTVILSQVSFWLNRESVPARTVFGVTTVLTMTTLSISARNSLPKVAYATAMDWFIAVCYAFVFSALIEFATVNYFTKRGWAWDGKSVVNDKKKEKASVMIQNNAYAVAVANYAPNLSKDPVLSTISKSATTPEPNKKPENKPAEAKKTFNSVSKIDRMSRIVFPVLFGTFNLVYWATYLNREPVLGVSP
Protocol: as §1, §2

[5] = target: T3, α5β3γ2 benzodiazepine receptor GABA(A) isoform (UniProt P18507+P31644); test: Radioligand competition binding, α5β3γ2 BzR/GABA(A) isoform; set-up: Ki α5; means of two determinations; Ki α5; α5; other: text; species or system human and rat
T3 sequence (P18507 1-475): T1 sequence (P18507 1-475)
T3 sequence (P31644 1-462): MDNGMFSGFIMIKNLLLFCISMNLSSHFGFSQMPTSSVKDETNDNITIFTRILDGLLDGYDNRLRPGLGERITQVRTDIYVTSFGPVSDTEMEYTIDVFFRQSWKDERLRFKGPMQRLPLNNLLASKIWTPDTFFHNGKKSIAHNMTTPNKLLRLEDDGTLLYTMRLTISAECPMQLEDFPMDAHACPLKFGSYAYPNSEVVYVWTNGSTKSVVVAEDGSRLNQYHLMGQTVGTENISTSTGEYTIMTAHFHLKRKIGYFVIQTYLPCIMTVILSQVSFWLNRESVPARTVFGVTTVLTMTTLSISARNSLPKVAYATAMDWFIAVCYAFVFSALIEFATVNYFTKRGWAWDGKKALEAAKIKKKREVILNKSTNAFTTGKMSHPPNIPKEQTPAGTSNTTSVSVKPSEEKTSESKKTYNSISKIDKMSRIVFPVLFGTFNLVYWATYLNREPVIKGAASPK

[6] = read-out: Ki α6, Table I, means of two determinations
[7] = read-out: α6, untitled table of lead compounds, unit inferred
[8] = read-out: Ki α1, Table I, means of two determinations
[9] = read-out: α1, untitled table of lead compounds, unit inferred
[10] = read-out: Ki α2, Table I, means of two determinations
[11] = read-out: α2, untitled table of lead compounds, unit inferred
[12] = read-out: Ki α5, Table I, means of two determinations
[13] = read-out: α5, untitled table of lead compounds, unit inferred

SMILES | Ki [1, 6] [nM] | Ki [1, 7] [nM] | Ki [2, 8] [nM] | Ki [2, 9] [nM] | efficacy / modulation of GABA elicited currents at α5 (in words) [3] | Ki [4, 10] [nM] | Ki [4, 11] [nM] | Ki [5, 12] [nM] | Ki ([5]; read-out: binding potency at α5 subtypes) [nM] | Ki [5, 13] [nM] | Ki ([1]; read-out: Ki α6, Table 2, means of two determinations) [nM] | Ki ([2]; read-out: Ki α1, Table 2, means of two determinations) [nM] | efficacy / modulation of GABA elicited currents at α5 (in words) ([3]; listed as XLi-356) | efficacy / modulation of GABA elicited currents at α5 (in words) ([3]; listed as Xli356) | Ki ([4]; read-out: Ki α2, Table 2, means of two determinations) [nM] | Ki ([5]; read-out: Ki α5, Table 2, means of two determinations) [nM]
CCOC(=O)c1ncn2c1CN=C(c1ccccc1)c1cc(-c3ccccc3)ccc1-2 [DM-I-81, Ethyl 8-phenyl-6-phenyl-4H-benzo[f]imidazo[1,5-a][1,4]diazepine-3-carboxylate] | > 2000 | > 2000 | > 2000 | > 2000 | moderate agonist activity | > 2000 | > 2000 | 176 | 174 | 176 |  |  |  |  |  | 
COCc1ncn2c1CN(C)C(=O)c1cc(Cl)ccc1-2 [PWZ-029, methyl(8-chloro-5,6-dihydro-5-methyl-6-oxo-4H-imidazo[1,5-α][1,4]benzodiazepin-3-yl)methyl ether] | > 300 | > 300 | > 300 | > 300 | selective inverse agonist | > 300 | > 300 | 38.8 |  | 38.8 |  |  |  |  |  | 
CCc1ccc2c(c1)C(=O)N(C)Cc1c(C(=O)OCCCOC(=O)c3ncn4c3CN(C)C(=O)c3cc(CC)ccc3-4)ncn1-2 [XLi356, 1,3-Bis(8-ethyl-5,6-dihydro-5-methyl-6-oxo-4H-imidazo[1,5a][1,4]benzodiazepine-3-carboxy)propyl diester] |  |  |  | 2380 |  |  | 5980 |  |  | 107 | 5000 | 2380 | clear agonist | appears to be an agonist | 5980 | 107

Reference: patent publication US7595395B2, “Gabaergic agents to treat memory deficits” (priority 2005, dated 2009)
